Experiments:
[1] = system: HL-60 acute promyelocytic leukemia cell line; assay: HL-60 cell line toxicity (Cell titer Glo viability); conditions: HL-60, 72 h
Description: The half maximal inhibition concentration (IC50) for each compound was determined by harvesting cells during the logarithmic growth period and then counting cell number using hemocytometer. […] Then, using a Biomek FX, test articles were serially diluted (10 mM top, 3× dilution intervals) along with a reference inhibitor (1 mM top, 3× dilution intervals) in acoustic grade Labcyte plate. Then, using an acoustic dispenser (Labcyte550), compounds were added as serially diluted to plate with cells: 90 nL of serially diluted compounds per well. 90 nL DMSO is added to control wells. Test plates were incubated for 72 h in the humidified incubator at 37° C. with 5% CO2. 25 μL of reconstituted Cell titer Glo reagent was added to each well. Each test plate was then incubated for 20 min at room temperature. Luminescence was then recorded using Synergy Neo2Multi-mode Reader.
(§1) In order to calculate intersect IC50, a dose-response curve was fitted using nonlinear regression model with a sigmoidal dose response.
(§2) The formula for calculating surviving rate is shown below, and the intersect IC50 was calculated according to the dose-response curve generated by the software:
The compounds of interest were assessed cell viability in the HL-60 acute promyelocytic leukemia cell line (ATCC® CCL-240). […] Culture medium were purchased from ATCC, USA.

[2] = system: SK-MEL-28 melanoma cell line; assay: SK-MEL-28 cell line toxicity (Cell titer Glo viability); type: cell-based; conditions: SK-MEL-28, 72 h
Description: (§3) Culture medium were purchased from ATCC, USA.
• General cell culture reagents and plastic. • 384-Well Flat white Poly-styrene TC-Treated Microplates (Corning). • 384 well poly-propylene plates (acoustic grade, Labcyte) for compound dilution. • Cell titer Glo luminescent Cell Viability reagent (Cat #G7571, Promega).
(§4) 90 nL DMSO is added to control wells. […] Luminescence was then recorded using Synergy Neo2Multi-mode Reader.

[3] = system: PC3 prostate adenocarcenoma cell line; assay: PC3 cell line toxicity (Cell titer Glo viability); type: cell-based; conditions: PC3, 72 h
Description: as §4, §3

[4] = target: T1, cannabinoid receptor 2 (CNR2) (Homo sapiens, UniProt P34972); assay: CB2 receptor agonist assay (cAMP Hunter eXpress, CNR2 CHO-K1 cells); type: cell-based; conditions: agonist mode, Forskolin-stimulated cAMP, CNR2 CHO-K1 cells
T1 construct: host or cells: CHO-K1
Description: The assays were performed in cAMP Hunter eXpress cells engineered to overexpress naturally Gi/Go-coupled wildtype cannabinoid receptor 1 (CNR1) or cannabinoid receptor 2 (CNR2) in CHO-K1 cell type. In these cells, CB1 and/or […] agonists inhibit production of intracellular cAMP in response to stimulation with Forskolin. cAMP levels are determined using luminogenic detection reagents provided with the Hunter eXpress cAMP detection kit.
• Assay ready CNR1 CHO-K1 cells were obtained from Eurofins/Discover X, cat #95-0071E2 • Assay ready CNR2 CHO-K1 cells were obtained from Eurofins/Discover X, cat #95-0183E2 • Hunter eXpress cAMP detection kit was also from Discover X. The kit includes all cAMP detection reagents, Forskolin, complete cell plating medium and cell assay buffer.
The Assay-Ready CNR1 CHO-K1 or CNR2 CHO-K1 cells were thawed and re-suspended in pre-warmed Assay Complete plating medium and inoculated into 96 well plate at a density of 30,000 cells in 100 μL. The plates with cells were incubated for 24 h at 37° C. in 5% CO2. […] The cells were stimulated with the Forskolin/compound buffer for 30 min. After stimulation, 15 μL of cAMP antibody reagent and 60 μL of cAMP working detection solution were added to the cells and, the cells were incubated for 1 h at room temperature. After 1 h incubation, 60 μL of cAMP Solution A was added to the wells and the plate was incubated for 3 h at room temperature. The plate was read on Biotek Synergy Neo2 reader in luminescent mode. CB1 and CB2 agonists should reduce cAMP production in response to Forskilin. Relative luminescence units (RLUs) were plotted against compound concentration to determine apparent EC50 values of the agonist compounds.

[5] = system: PANC-1 pancreatic carcinoma cell line; assay: PANC-1 cell line toxicity (Cell titer Glo viability); conditions: PANC-1, 72 h
Description: The half maximal inhibition concentration (IC50) for each compound was determined by harvesting cells during the logarithmic growth period and then counting cell number using hemocytometer. The cell concentrations were adjusted to 5×10^4 cells/mL with respective culture medium. 30 μL of cell suspensions were added to three 384-well plates with the final cell density of 1.5×10^3 cells/well. Then, using a Biomek FX, test articles were serially diluted (10 mM top, 3× dilution intervals) along with a reference inhibitor (1 mM top, 3× dilution intervals) in acoustic grade Labcyte plate. Then, using an acoustic dispenser (Labcyte550), compounds were added as serially diluted to plate with cells: 90 nL of serially diluted compounds per well. 90 nL DMSO is added to control wells. Test plates were incubated for 72 h in the humidified incubator at 37° C. with 5% CO2. 25 μL of reconstituted Cell titer Glo reagent was added to each well. Each test plate was then incubated for 20 min at room temperature. Luminescence was then recorded using Synergy Neo2Multi-mode Reader.
as §1, §2, §3

[6] = read-out: EC50 (cell viability)

T1 sequence (P34972 whole entry): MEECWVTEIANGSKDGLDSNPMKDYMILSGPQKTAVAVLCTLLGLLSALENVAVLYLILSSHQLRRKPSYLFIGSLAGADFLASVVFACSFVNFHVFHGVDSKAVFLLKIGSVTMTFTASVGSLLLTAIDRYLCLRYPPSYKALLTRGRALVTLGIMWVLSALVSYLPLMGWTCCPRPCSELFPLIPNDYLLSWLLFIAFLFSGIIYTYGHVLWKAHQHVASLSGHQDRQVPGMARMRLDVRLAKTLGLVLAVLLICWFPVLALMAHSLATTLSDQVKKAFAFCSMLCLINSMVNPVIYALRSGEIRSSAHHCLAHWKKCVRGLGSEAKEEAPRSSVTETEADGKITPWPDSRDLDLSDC

Which “higher tolerance of HL-60 cells to the compound than staurosporine” value [1] does the source give for Cannabigerol Quinone [Formula VI] here?
Its value is “more than 1,500 fold”.

And the “Cell Viability (%)” value ([1]; 0.00017 uM)?
Its value is 102.3%.

And the “Cell Viability (%)” value ([1]; 0.00051 uM)?
The value was 113.4%.

What about the “Cell Viability (%)” value ([1]; 0.0015 uM) of the same substance?
Its value is 91.6%.

What about the “Cell Viability (%)” value ([1]; 0.0046 uM) of the same substance?
Its value is 94.0%.

What about the “Cell Viability (%)” value ([1]; 0.014 uM) of the same substance?
Its value is 94.1%.

And the “Cell Viability (%)” value ([1]; 0.041 uM)?
Its value is 83.6%.

What about the “Cell Viability (%)” value ([1]; 0.12 uM) of the same substance?
Its value is 85.1%.

What about the “Cell Viability (%)” value ([1]; 0.37 uM) of the same substance?
The value was 91.3%.

And the “Cell Viability (%)” value ([1]; 1.1 uM)?
The value was 91.3%.

And the “Cell Viability (%)” value ([1]; 3.3 uM)?
The value was 97.8%.

What about the “Cell Viability (%)” value ([1]; 10 uM) of the same substance?
Its value is 81.9%.

And the “Cell Viability (%)” value ([1]; 30 uM)?
Its value is 61.5%.

What about the EC50 [1, 6] of the same substance?
Its EC50 is greater than 30 µM.

And the EC50 [2]?
Its EC50 is greater than 30 µM.

And the “higher tolerance of SK-MEL-28 cells to the compound than staurosporine” value [2]?
The value was “more than 250 fold”.

What about the “Cell Viability (%)” value ([2]; 0.00017 uM) of the same substance?
Its value is 100.0%.

And the “Cell Viability (%)” value ([2]; 0.00051 uM)?
The value was 97.2%.

And the “Cell Viability (%)” value ([2]; 0.0015 uM)?
The value was 96.2%.

And the “Cell Viability (%)” value ([2]; 0.0046 uM)?
The value was 101.0%.

What about the “Cell Viability (%)” value ([2]; 0.014 uM) of the same substance?
Its value is 98.5%.

And the “Cell Viability (%)” value ([2]; 0.041 uM)?
Its value is 99.9%.

What about the “Cell Viability (%)” value ([2]; 0.12 uM) of the same substance?
The value was 100.0%.

And the “Cell Viability (%)” value ([2]; 0.37 uM)?
The value was 101.0%.

And the “Cell Viability (%)” value ([2]; 1.1 uM)?
Its value is 99.9%.

And the “Cell Viability (%)” value ([2]; 3.3 uM)?
The value was 104.0%.

What about the “Cell Viability (%)” value ([2]; 10 uM) of the same substance?
The value was 99.0%.

And the “Cell Viability (%)” value ([2]; 30 uM)?
The value was 83.2%.

What about the EC50 [3] of the same substance?
Its EC50 is greater than 30 µM.

What about the “higher tolerance of PC3 cells to the compound than staurosporine” value [3] of the same substance?
Its value is “more than 10,000 fold”.

And the “Cell Viability (%)” value ([3]; 0.00017 uM)?
The value was 97.4%.

And the “Cell Viability (%)” value ([3]; 0.00051 uM)?
Its value is 100.9%.

What about the “Cell Viability (%)” value ([3]; 0.0015 uM) of the same substance?
The value was 96.0%.

And the “Cell Viability (%)” value ([3]; 0.0046 uM)?
The value was 96.9%.

And the “Cell Viability (%)” value ([3]; 0.014 uM)?
Its value is 96.5%.

What about the “Cell Viability (%)” value ([3]; 0.041 uM) of the same substance?
Its value is 95.9%.

What about the “Cell Viability (%)” value ([3]; 0.12 uM) of the same substance?
The value was 96.0%.

And the “Cell Viability (%)” value ([3]; 0.37 uM)?
Its value is 97.7%.

And the “Cell Viability (%)” value ([3]; 1.1 uM)?
Its value is 94.0%.

What about the “Cell Viability (%)” value ([3]; 3.3 uM) of the same substance?
The value was 94.6%.

What about the “Cell Viability (%)” value ([3]; 10 uM) of the same substance?
Its value is 91.2%.

And the “Cell Viability (%)” value ([3]; 30 uM)?
Its value is 84.5%.

What about the IC50 [4] of the same substance?
Its IC50 is 0.12 µM.

What about the “higher tolerance of PANG-1 cells to the compound than staurosporine” value [5] of the same substance?
The value was “more than 750 fold”.

And the “Cell Viability (%)” value ([5]; 0.00017 uM)?
Its value is 106.6%.

What about the “Cell Viability (%)” value ([5]; 0.00051 uM) of the same substance?
The value was 107.5%.

What about the “Cell Viability (%)” value ([5]; 0.0015 uM) of the same substance?
The value was 100.4%.

What about the “Cell Viability (%)” value ([5]; 0.0046 uM) of the same substance?
The value was 104.2%.

What about the “Cell Viability (%)” value ([5]; 0.014 uM) of the same substance?
Its value is 100.2%.

And the “Cell Viability (%)” value ([5]; 0.041 uM)?
Its value is 99.9%.

What about the “Cell Viability (%)” value ([5]; 0.12 uM) of the same substance?
Its value is 99.2%.

What about the “Cell Viability (%)” value ([5]; 0.37 uM) of the same substance?
Its value is 98.6%.

What about the “Cell Viability (%)” value ([5]; 1.1 uM) of the same substance?
Its value is 102.6%.

And the “Cell Viability (%)” value ([5]; 3.3 uM)?
The value was 95.7%.

And the “Cell Viability (%)” value ([5]; 10 uM)?
The value was 99.4%.

What about the “Cell Viability (%)” value ([5]; 30 uM) of the same substance?
Its value is 99.8%.

And the EC50 [5, 6]?
The EC50 was greater than 30 µM.
